The values below come from patent US8404733B2, “Laser enhanced amino acid blend and use of same to regenerate active myocardial tissue” (priority 2010, dated 2013).

The test system of the assay is murine macrophages. Description: TNF-alpha production (ELISA) by Echinacea activated murine macrophages. The following applies: 24 hours; amino acid samples 20 mg/ml together with Echinacea; LPS 1 ng/ml; Negative Control 215 +/- 13.7. Type of assay: cell-based. The text has this: The rationale for the use of this process of laser enhancement is the result of an in vitro study using a similar short wavelength laser treatment. In this study, murine macrophages that were activated with Echinacea to simulate an irritated immune system were then fed the above formula of amino acids in the untreated and laser treated conditions. […] The specific details of the in vitro study are as follows. 20 grams of the amino acid blend as detailed above was used for each of the control and treated amino acid samples. The Untreated Sample was not treated. The Treated Sample was exposed to laser radiation from a 458 nm pumped argon gas laser with a primary power of 16.5 mW adjusted through the optics to a power level of 5.1 mW The duration of treatment of the sample was 30 seconds. The following bioassays were performed. A standardized Echinacea sample alone or with 20 mg/ml of the Untreated or Treated Sample amino acids were incubated in tissue culture media of triplicate wells of murine macrophages. […] The results were as follows and are expressed as the mean TNF-alpha production plus or minus the statistical standard deviation (SD): Using a Student's 2-tailed t-test, the Echinacea Stimulated Sample was compared to the results of Echinacea plus the Untreated Amino Acid Sample or the Treated Amino Acid Sample.

For the substance lipopolysaccharide [LPS], the “TNF-alpha +/- SD (mean TNF-alpha production)” value is 2863 +/− 185.7.
